Data on ten compounds can be found in patent US9326516B2, “Molecules having certain pesticidal utilities, and intermediates, compositions, and processes related thereto” (Dow AgroSciences LLC, priority 2014, dated 2016).

Structures are written as SMILES.

Type in all cases: in vivo
Series [1] deals with Green Peach Aphid (Myzus persicae, MYZUPE). The experiment in a line: Bioassay on Green Peach Aphid (GPA), foliar spray on cabbage seedlings. The conditions noted are these: 72 h, 200 ppm spray on infested cabbage seedlings, graded after three days, Abbott corrected % control, read-out: GPA % Control (or Mortality) rating. The method, then:
Certain molecules disclosed in this document were tested against GPA using procedures described in the following example. In the reporting of the results, the “GPA Rating Table” was used (See Table Section).
Cabbage seedlings grown in 3-inch pots, with 2-3 small (3-5 cm) true leaves, were used as test substrate. The seedlings were infested with 20-50 GPA (wingless adult and nymph stages) one day prior to chemical application. Four pots with individual seedlings were used for each treatment. Test compounds (2 mg) were dissolved in 2 mL of acetone/methanol (1:1) solvent, forming stock solutions of 1000 ppm test compound. The stock solutions were diluted 5× with 0.025% Tween 20 in water to obtain the solution at 200 ppm test compound. A hand-held aspirator-type sprayer was used for spraying a solution to both sides of […] leaves until runoff. Reference plants (solvent check) were sprayed with the diluent only containing 20% by volume of acetone/methanol (1:1) solvent. Treated plants were held in a holding room for three days at approximately 25° C. and ambient relative humidity (RH) prior to grading. Evaluation was conducted by counting the number of live aphids per plant under a microscope. Percent Control was measured by using Abbott's correction formula (W. S. Abbott, “A Method of Computing the Effectiveness of an Insecticide” J. Econ. Entomol. 18 (1925), pp. 265-267) as follows. Corrected % Control=100*(X−Y)/X where X=No. of live aphids on solvent check plants and Y=No. of live aphids on treated plants

For series [2], the system named is Beet Armyworm (Spodoptera exigua, LAPHEG). The experiment in a line: Bioassay on Beet Armyworm (BAW), 128-well diet tray assay. Conditions: 168 h, 50 μg/cm^2 on artificial diet, second instar BAW larvae, 25° C., five to seven days, average of eight wells, read-out: BAW % Control (or Mortality) rating. The method, then: (§1) Certain molecules disclosed in this document were tested against BAW and CEW using procedures described in the following examples. In the reporting of the results, the “BAW & CL Rating Table” was used (See Table Section).
Bioassays on BAW were conducted using a 128-well diet tray assay. one to five second instar BAW larvae were placed in each well (3 mL) of the diet tray that had been previously filled with 1 mL of artificial diet to which 50 μg/cm^2 of the test compound (dissolved in 50 μL of 90:10 acetone-water mixture) had been applied (to each of eight wells) and then allowed to dry. Trays were covered with a clear self-adhesive cover and held at 25° C., 14:10 light-dark for five to seven days. Percent mortality was recorded for the larvae in each well; activity in the eight wells was then averaged. The results are indicated in the table entitled “Table ABC: Biological Results” (See Table Section).

The test system of series [3] is Cabbage Looper (Trichoplusia ni, TRIPNI). The experiment in a line: Bioassay on Cabbage Looper (CL), 128-well diet tray assay. Conditions: 168 h, 50 μg/cm^2 on artificial diet, second instar CL larvae, 25° C., five to seven days, average of eight wells, read-out: CL % Control (or Mortality) rating. How it is done: as §1
Bioassays on CL were conducted using a 128-well diet tray assay, one to five second instar CL larvae were placed in each well (3 mL) of the diet tray that had been previously filled with 1 mL of artificial diet to which 50 μg/cm^2 of the test compound (dissolved in 50 μL of 90:10 acetone-water mixture) had been applied (to each of eight wells) and then allowed to dry. Trays were covered with a clear self-adhesive cover and held at 25° C., 14:10 light-dark for five to seven days. Percent mortality was recorded for the larvae in each well; activity in the eight wells was then averaged. The results are indicated in the table entitled “Table ABC: Biological Results” (See Table Section).

The subject of series [4] is Yellow Fever Mosquito (Aedes aegypti, AEDSAE). Conditions: about 1 day-old larvae, master plate 4000 ppm in DMSO diluted, room temperature, scored after 3 days on mortality. The method, then: Certain molecules disclosed in this document were tested against YFM using procedures described in the following paragraph. In the reporting of the results, the “YFM Rating Table” was used (See Table Section).
Master plates containing 400 μg of a molecule dissolved in 100 μL of dimethyl sulfoxide (DMSO) (equivalent to a 4000 ppm solution) are used. A master plate of assembled molecules contains 15 μL per well. To this plate, 135 μL of a 90:10 water:acetone mixture is added to each well. A robot (Biomek® NXP Laboratory Automation Workstation) is programmed to dispense 15 μL aspirations from the master plate into an empty 96-well shallow plate (“daughter” plate). There are 6 reps (“daughter” plates) created per master. The created daughter plates are then immediately infested with YFM larvae.
The day before plates are to be treated, mosquito eggs are placed in Millipore water containing liver powder to begin hatching (4 g. into 400 mL). After the daughter plates are created using the robot, they are infested with 220 μL of the liver powder/larval mosquito mixture (about 1 day-old larvae). After plates are infested with mosquito larvae, a non-evaporative lid is used to cover the plate to reduce drying. Plates are held at room temperature for 3 days prior to grading. After 3 days, each well is observed and scored based on mortality.

In the case of `FC(F)(F)Oc1ccc(-n2cnc(-c3ccc(NC4=N[C@H](c5ccccc5)CO4)cc3)n2)cc1` [Compound F1, (R)-4-Phenyl-N-(4-(1-(4-(trifluoromethoxy)phenyl)-1H-1,2,4-triazol-3-yl)phenyl)-4,5-dihydrooxazol-2-amine], in series [1], the mortality (as a rule, the share of the test organisms that died) at 200 ppm fell in the range of 80 to 100%. For the same compound, the mortality at 50 µg/cm2 in series [2] and in series [3] was 50 to 100% in each case. In addition, in series [4], the “YFM % Control (or Mortality) rating” value was “B (More than 0-Less than 80)”.
With `FC(F)(F)Oc1ccc(-n2cnc(-c3ccc(NC4=N[C@@H](c5ccccc5)CO4)cc3)n2)cc1` [Compound F2, (S)-4-Phenyl-N-(4-(1-(4-(trifluoromethoxy)phenyl)-1H-1,2,4-triazol-3-yl)phenyl)-4,5-dihydrooxazol-2-amine], the mortality at 200 ppm in series [1] was 80 to 100%. Also, the mortality at 50 µg/cm2 in series [2] and in series [3] was 50 to 100% throughout. For the same compound, in series [4], the “YFM % Control (or Mortality) rating” value was “B (More than 0-Less than 80)”.
For `FC(F)(F)Oc1ccc(-n2cnc(-c3ccc(NC4=NC(c5ccc(C(F)(F)F)cc5)CO4)cc3)n2)cc1` (centres unmarked) [Compound F5, N-(4-(1-(4-(Trifluoromethoxy)phenyl)-1H-1,2,4-triazol-3-yl)phenyl)-4-(4-(trifluoromethyl)phenyl)-4,5-dihydrooxazol-2-amine], the mortality at 200 ppm in series [1] lay within 80 to 100%. The mortality at 50 µg/cm2 in series [2] and in series [3] was 50 to 100% each time. The “YFM % Control (or Mortality) rating” value in series [4] was “B (More than 0-Less than 80)”.
As to `FC(F)(F)Oc1ccc(-n2cnc(-c3ccc(NC4=NC(c5ccccc5Cl)CO4)cc3)n2)cc1` (centres unmarked) [Compound F11, 4-(2-Chlorophenyl)-N-(4-(1-(4-(trifluoromethoxy)phenyl)-1H-1,2,4-triazol-3-yl)phenyl)-4,5-dihydrooxazol-2-amine], in series [1], the mortality at 200 ppm is 0%. Further, the mortality at 50 µg/cm2 in series [2] and in series [3] was 50 to 100% throughout. Also, in series [4], the “YFM % Control (or Mortality) rating” value is “D (No activity noticed in this bioassay)”.
On to `FC(F)(F)Oc1ccc(-n2cnc(-c3ccc(NC4=N[C@H](c5ccccc5)CCO4)cc3)n2)cc1` [Compound F20, (S)-4-Phenyl-N-(4-(1-(4-(trifluoromethoxy)phenyl)-1H-1,2,4-triazol-3-yl)phenyl)-5,6-dihydro-4H-1,3-oxazin-2-amine], for which, in series [1], the mortality at 200 ppm was in the range of 80 to 100%. Moreover, the results for the mortality at 50 µg/cm2 in series [2] and in series [3] were 0% and 50 to 100%, respectively. The “YFM % Control (or Mortality) rating” value in series [4] is listed as “B (More than 0-Less than 80)”.
As for `FC(F)(F)c1ccc(-n2cnc(-c3ccc(NC4=NC(c5ccccc5Cl)CS4)cc3)n2)cc1` (centres unmarked) [Compound F41, 4-(2-Chlorophenyl)-N-(4-(1-(4-(trifluoromethyl)phenyl)-1H-1,2,4-triazol-3-yl)phenyl)-4,5-dihydrothiazol-2-amine], the mortality at 200 ppm in series [1] was found to be 0%. The mortality at 50 µg/cm2 in series [2] and in series [3] was 50 to 100% in each case.
Turning to `Cc1cc(C2CSC(Nc3ccc(-c4ncn(-c5ccc(C(F)(F)F)cc5)n4)cc3)=N2)ccc1Cl` (centres unmarked) [Compound F42, 4-(4-Chloro-3-methylphenyl)-N-(4-(1-(4-(trifluoromethyl)phenyl)-1H-1,2,4-triazol-3-yl)phenyl)-4,5-dihydrothiazol-2-amine], in series [1], the mortality at 200 ppm was found to be 0%. Moreover, the mortality at 50 µg/cm2 in series [2] and in series [3] was 0% throughout.
Take `FC(F)(F)Oc1ccc(-n2cnc(-c3ccc(NC4=NC(c5ccc(Cl)cc5)CCO4)cc3)n2)cc1` (centres unmarked) [Compound F43, 4-(4-Chlorophenyl)-N-(4-(1-(4-(trifluoromethoxy)phenyl)-1H-1,2,4-triazol-3-yl)phenyl)-5,6-dihydro-4H-1,3-oxazin-2-amine]: in series [1], the mortality at 200 ppm lay within 80 to 100%. Further, the mortality at 50 µg/cm2 in series [2] was in the range of 0 to 50%; in series [3] it was 50 to 100%. Besides, the “YFM % Control (or Mortality) rating” value in series [4] is reported as “B (More than 0-Less than 80)”.
The matching figures for `Cc1ccc(C2CCOC(Nc3ccc(-c4ncn(-c5ccc(OC(F)(F)F)cc5)n4)cc3)=N2)cc1` (centres unmarked) [Compound F44, 4-(p-Tolyl)-N-(4-(1-(4-(trifluoromethoxy)phenyl)-1H-1,2,4-triazol-3-yl)phenyl)-5,6-dihydro-4H-1,3-oxazin-2-amine]: 80 to 100%, 0 to 50%, 50 to 100% and “B (More than 0-Less than 80)”.
Turning to `FC(F)(F)Oc1ccc(-n2cnc(-c3ccc(NC4=NC(c5ccc(C(F)(F)F)cc5)CCO4)cc3)n2)cc1` (centres unmarked) [Compound F45, N-(4-(1-(4-(Trifluoromethoxy)phenyl)-1H-1,2,4-triazol-3-yl)phenyl)-4-(4-(trifluoromethyl)phenyl)-5,6-dihydro-4H-1,3-oxazin-2-amine], the mortality at 200 ppm in series [1] is 80 to 100%. Besides, the mortality at 50 µg/cm2 in series [2] and in series [3] was 50 to 100% each time. Also, the “YFM % Control (or Mortality) rating” value in series [4] is given as “B (More than 0-Less than 80)”.
